Tested on: HuapoAI transgenic mice
Assay: Evaluation of triglyceride and cholesterol level in HuapoAI transgenic mice
Format: in vivo
Conditions: 100 mg/kg oral gavage daily for 7 days; vehicle about 140 to 180 mg/dl
Method: Five to six week old male mice, transgenic for human apoAI [C57B1/6-tgn(apoa1)1rub, Jackson Laboratory, Bar Harbor, Me.] are housed five per cage (10″×20″×8″ with aspen chip bedding) with food (Purina 5001) and water available at all times. After an acclimation period of 2 weeks, animals are individually identified by ear notches, weighed and assigned to groups based on body weight. Beginning the following morning, mice are dosed daily by oral gavage for 7 days using a 20 gauge, 1½″ curved disposable feeding needle. Treatments are test compounds (30 mg/kg), a positive control (fenofibrate, 100 mg/kg) or vehicle [1% carboxymethylcellulose (w/v)/0.25% Tween80 (w/v); 0.2 ml/mouse]. […]
The animals dosed with vehicle have average triglycerides values of about 60 to 80 mg/dl, which are reduced by the positive control fenofibrate (33-58 mg/dl with a mean reduction of 37%). […] Test compounds evaluated in terms of percent increase in the area under the curve. […]
Glucose is measured […] by using commercially purchased reagents (Sigma #315-500). […] The absorbance of the dye produced is linearly related to the analyte in the sample. […] Standards (Sigma #339-11, Sigma #16-11, and Sigma #CCO0534 for glucose, triglycerides and total cholesterol, respectively), quality control plasma (Sigma #A2034), and samples (2 or 5 μl/well) are measured in duplicate using 200 μl of reagent. […]

CC(C)OC(=O)C(C)(C)Oc1ccc(C(=O)c2ccc(Cl)cc2)cc1 [fenofibrate]
average total serum cholesterol values: 190 to 280 mg/dL

Reference: patent US20080207685A1, “Heterocyclic Compounds As Modulators Of Peroxisome Proliferator Activated Receptors, Useful For The Treatment And/Or Prevention Of Disorders Modulated By A Ppar” (Eli Lilly And Company, priority 2003, published 2008)
